Experimental data reported in the Kinase Knowledgebase extract (Sharma et al. 2016).

Molecular target: EGFR (UniProt P00533)
Assay: Inhibition of EGFR Kinase Activity

EGFR, sequence (P00533 whole entry, looked up): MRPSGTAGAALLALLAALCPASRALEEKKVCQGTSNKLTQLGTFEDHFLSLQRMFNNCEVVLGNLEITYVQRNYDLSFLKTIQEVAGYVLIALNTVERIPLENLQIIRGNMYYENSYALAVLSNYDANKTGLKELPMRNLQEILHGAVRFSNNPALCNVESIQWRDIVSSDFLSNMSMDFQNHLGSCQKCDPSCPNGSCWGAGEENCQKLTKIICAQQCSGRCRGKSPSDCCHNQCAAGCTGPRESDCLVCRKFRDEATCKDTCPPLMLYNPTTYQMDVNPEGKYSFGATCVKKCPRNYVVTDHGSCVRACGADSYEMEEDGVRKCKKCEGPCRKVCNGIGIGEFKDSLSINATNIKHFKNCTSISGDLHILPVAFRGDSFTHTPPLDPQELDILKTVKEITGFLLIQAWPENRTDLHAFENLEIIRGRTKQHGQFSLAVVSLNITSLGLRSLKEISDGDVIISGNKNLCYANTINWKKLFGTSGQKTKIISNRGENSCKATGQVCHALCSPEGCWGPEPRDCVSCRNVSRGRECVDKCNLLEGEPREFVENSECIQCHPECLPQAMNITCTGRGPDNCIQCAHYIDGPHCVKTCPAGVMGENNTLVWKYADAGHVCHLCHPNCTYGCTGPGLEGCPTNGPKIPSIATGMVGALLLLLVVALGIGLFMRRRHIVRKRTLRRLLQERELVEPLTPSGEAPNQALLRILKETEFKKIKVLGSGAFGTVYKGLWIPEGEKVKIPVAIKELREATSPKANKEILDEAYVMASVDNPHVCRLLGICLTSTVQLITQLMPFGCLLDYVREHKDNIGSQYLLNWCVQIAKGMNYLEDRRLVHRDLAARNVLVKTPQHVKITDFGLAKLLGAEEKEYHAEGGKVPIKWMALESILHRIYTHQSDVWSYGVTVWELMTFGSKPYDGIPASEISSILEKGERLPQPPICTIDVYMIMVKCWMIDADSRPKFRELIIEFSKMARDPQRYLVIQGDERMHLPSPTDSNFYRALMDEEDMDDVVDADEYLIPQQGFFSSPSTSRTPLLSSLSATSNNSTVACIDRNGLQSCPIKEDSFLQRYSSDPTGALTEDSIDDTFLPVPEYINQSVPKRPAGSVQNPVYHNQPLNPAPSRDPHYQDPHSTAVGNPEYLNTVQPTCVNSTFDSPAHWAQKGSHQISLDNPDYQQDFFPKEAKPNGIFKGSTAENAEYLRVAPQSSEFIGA

Structure (SMILES)	IC50
C=CCN(c1cccc(C(N)=O)c1)c1ncnc(Nc2cccc(NC(=O)C#CC)c2)n1	< 50 µM
C=CC(=O)Nc1cc(Nc2ncnc(Nc3ccc4c(cnn4Cc4ccccc4)c3)n2)ccc1OCCCC1CCN(C)CC1	< 50 µM
C=CC(=O)Nc1ccc(Nc2ncnc(NC3CC3c3ccccc3)n2)cc1 (centres undefined)	< 50 µM
C=CC(=O)Nc1ccc(Nc2ncnc(N(C)C3CC3c3ccc(Cl)cc3)n2)cc1 (centres undefined)	< 50 µM
C#CCC(=O)Nc1cccc(Nc2ncnc(NN3CCCc4cc(OC)ccc43)n2)c1	< 50 µM
C=CC(=O)Nc1ccc(Nc2ncnc(N(CC)c3ccc4c(cnn4Cc4ccccc4)c3)n2)cc1	< 50 µM
C=CC(=O)Nc1ccc(Nc2ncnc(Nc3ccc(OCCOC)c(OC)c3)n2)cc1	< 50 µM
C=CC(=O)N(CCCN1CCOCC1)c1cccc(Nc2ncnc(N(C)c3ccc4c(cnn4Cc4ccccc4)c3)n2)c1	< 50 µM
CCN(c1ccc2NN(=Cc2c1)Cc3ccccn3)c4ncnc(Nc5cccc(NC(=O)C=C)c5)n4	< 50 µM
